In one test the target is T1, Aurora-A (Mus musculus, UniProt P97477).
T1 construct: polyhistidine (N)
T1 sequence (P97477 1-395): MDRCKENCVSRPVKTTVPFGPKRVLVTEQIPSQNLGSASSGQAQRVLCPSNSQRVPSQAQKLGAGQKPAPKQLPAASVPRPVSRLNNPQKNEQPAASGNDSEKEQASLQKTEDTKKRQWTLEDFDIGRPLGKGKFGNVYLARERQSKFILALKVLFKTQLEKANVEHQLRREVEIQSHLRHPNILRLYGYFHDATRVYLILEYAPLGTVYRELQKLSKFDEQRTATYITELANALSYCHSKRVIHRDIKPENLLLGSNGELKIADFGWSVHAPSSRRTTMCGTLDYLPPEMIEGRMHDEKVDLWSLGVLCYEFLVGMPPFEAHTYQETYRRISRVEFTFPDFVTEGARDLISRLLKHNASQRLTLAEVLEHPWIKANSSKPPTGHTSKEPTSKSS
Description: Aurora-A kinase screening assay (33P-ATP FlashPlate).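 Also: His-tagged mouse Aurora-A phosphorylating a biotinylated peptide captured on streptavidin plates, read as 33P uptake by scintillation counting, 1% DMSO, inhibition scaled between per-plate maximum and minimum signals.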 The test is classed as biochemical. The settings on record: 10 μM ATP, 1 hr at 30° C.

The target of the next test is T2, RET (Homo sapiens, UniProt P07949).
T2 construct: polyhistidine (N)
T2 sequence (P07949 658-1114 limits assumed): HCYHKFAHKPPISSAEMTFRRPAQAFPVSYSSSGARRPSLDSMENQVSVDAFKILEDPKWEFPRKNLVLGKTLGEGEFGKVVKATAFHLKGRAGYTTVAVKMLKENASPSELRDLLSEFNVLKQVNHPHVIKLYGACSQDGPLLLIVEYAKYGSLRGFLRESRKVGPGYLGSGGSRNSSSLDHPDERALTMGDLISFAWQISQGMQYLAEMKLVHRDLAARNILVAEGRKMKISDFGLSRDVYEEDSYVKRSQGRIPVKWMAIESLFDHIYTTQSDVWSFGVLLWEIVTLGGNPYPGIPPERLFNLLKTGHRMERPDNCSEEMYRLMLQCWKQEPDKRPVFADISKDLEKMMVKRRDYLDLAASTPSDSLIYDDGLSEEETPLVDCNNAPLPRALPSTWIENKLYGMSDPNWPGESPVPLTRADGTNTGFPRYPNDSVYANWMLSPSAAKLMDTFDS
Description: RET kinase screening assay (33P-ATP FlashPlate).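 Also: biotinylated peptide substrate captured on streptavidin FlashPlate, 33P phosphate transfer read by scintillation counting, 1% DMSO, lower incorporation means inhibition, percent relative to per-plate maximum and minimum signals.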 The test is classed as biochemical. The note with it: human RET kinase domain; 10 μM ATP; 1 hr at 30° C.

The subject of test [1] is HeLa cervical adenocarcinoma. Description: Cell Proliferation Inhibition Assay (14C-thymidine incorporation), HeLa.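 Also: test compound in DMSO added to cells seeded in scintillating 96-well plates, DMSO-only wells as control, uptake of methyl 14C-thymidine into new DNA counted.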 It counts as cell-based. The note with it: Homo sapiens, HeLa, HeLa cells.
The next test addresses T3, VEGF-R2 (Rattus norvegicus, UniProt O08775).
T3 construct: polyhistidine (N)
Description: VEGF-R2 kinase screening assay (33P-ATP FlashPlate).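 Also: Read-out is ³³P incorporation from ³³P-γ-ATP into biotinylated peptide substrate captured on streptavidin FlashPlate, counted by scintillation, 1% DMSO final, inhibition scaled between per-plate maximum and minimum signals.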 The test is classed as biochemical. The settings on record: rat VEGF-R2 kinase domain; 10 μM ATP; 1 hr at 30° C.

In a further test the target is T4, CDK1 (Homo sapiens, UniProt P06493).
T4 construct: purchased New England Biolabs, Beverly, Mass; 6020; host or cells: insect cells
T4 sequence (P06493 whole entry): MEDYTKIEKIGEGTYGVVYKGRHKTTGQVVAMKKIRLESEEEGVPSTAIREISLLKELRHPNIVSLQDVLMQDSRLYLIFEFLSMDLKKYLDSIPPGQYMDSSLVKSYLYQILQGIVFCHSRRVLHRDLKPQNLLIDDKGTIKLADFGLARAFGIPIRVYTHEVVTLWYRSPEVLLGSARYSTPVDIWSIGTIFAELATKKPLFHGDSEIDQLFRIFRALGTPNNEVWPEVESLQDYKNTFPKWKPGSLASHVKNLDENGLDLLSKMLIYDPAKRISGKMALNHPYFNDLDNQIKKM
T4 sequence (P14635 whole entry partner): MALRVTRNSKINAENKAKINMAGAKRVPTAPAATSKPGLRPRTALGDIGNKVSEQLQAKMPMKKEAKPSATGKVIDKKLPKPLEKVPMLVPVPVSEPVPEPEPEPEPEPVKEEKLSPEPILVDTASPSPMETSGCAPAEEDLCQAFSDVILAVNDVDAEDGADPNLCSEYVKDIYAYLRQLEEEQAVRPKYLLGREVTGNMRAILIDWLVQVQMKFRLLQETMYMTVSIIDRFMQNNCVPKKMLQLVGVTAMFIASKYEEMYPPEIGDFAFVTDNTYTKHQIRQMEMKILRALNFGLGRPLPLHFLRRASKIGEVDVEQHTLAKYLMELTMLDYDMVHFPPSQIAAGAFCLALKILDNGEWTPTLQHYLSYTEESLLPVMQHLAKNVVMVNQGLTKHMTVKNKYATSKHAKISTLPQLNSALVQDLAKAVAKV
Description: CDK-1 kinase screening assay (33P-ATP FlashPlate). The note with it: human CDK1 with cyclin B; 10 μM ATP; 1 hr at 30° C. The test is classed as biochemical.

For a further test, the target named is T5, HER2 (Homo sapiens, UniProt P04626).
T5 construct: GST (Glutathione-S-Transferase) (N); HIS6 (N); thrombin cleavage site (N); purchased Proqinase, Freiburg, Germany
T5 sequence (P04626 679-1255): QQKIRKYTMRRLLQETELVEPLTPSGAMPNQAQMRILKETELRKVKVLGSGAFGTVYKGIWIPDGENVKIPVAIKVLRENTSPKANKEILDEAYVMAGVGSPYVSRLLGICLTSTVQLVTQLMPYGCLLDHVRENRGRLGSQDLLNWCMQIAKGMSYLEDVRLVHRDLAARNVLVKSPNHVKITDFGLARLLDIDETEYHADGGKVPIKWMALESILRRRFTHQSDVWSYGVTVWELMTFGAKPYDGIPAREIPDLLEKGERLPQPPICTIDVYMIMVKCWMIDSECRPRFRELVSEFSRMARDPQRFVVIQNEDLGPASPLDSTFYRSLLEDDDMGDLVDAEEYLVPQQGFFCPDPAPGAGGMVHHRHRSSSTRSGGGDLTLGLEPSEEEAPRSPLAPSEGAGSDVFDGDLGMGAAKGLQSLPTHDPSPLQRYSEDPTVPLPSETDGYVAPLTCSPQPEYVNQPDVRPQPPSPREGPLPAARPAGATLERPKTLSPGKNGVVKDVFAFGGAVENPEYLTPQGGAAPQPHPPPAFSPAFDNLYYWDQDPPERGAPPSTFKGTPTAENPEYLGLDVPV
Description: HER2 kinase screening assay (33P-ATP FlashPlate).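 Also: Biotin-poly(GT) 4:1 peptide captured on streptavidin FlashPlate, 33P transfer from γ-ATP read by scintillation counting, lower incorporation means inhibition, 1% DMSO final, 100 µL reaction.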 The settings on record: GST-HIS6 HER-2 aa 679 to 1255; 10 μM ATP; 1 hr at 30° C. The test is classed as biochemical.

The test system of another test is A375 malignant melanoma. Description: Cell Proliferation Inhibition Assay (14C-thymidine incorporation), A375.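 Also: proliferation measured by radiolabelled thymidine uptake into new DNA, counted in scintillating 96-well plates, compound-treated wells compared with DMSO-only control wells.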 The settings on record: Homo sapiens, A-375, A375 cells. The test is classed as cell-based.
Another test concerns HCT-116 colon carcinoma. Description: Cell Proliferation Inhibition Assay (14C-thymidine incorporation), HCT-116.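 Also: proliferation measured as methyl 14C-thymidine uptake into new DNA, counted in 96-well scintillating microplates, compared with DMSO-only control wells.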 The note with it: Homo sapiens, HCT-116, HCT-116 cells. It counts as cell-based.

Structures are written as SMILES. pIC50: −log10 of the molar value. Some results are limits rather than exact numbers.

The record followed here is patent publication US7541367B2, “3-benzoimidazolyl-pyrazolopyridines useful in treating kinase disorders” (Janssen Pharmaceutica, N.V., priority 2005, dated 2009).

T3 sequence (O08775 786-1343): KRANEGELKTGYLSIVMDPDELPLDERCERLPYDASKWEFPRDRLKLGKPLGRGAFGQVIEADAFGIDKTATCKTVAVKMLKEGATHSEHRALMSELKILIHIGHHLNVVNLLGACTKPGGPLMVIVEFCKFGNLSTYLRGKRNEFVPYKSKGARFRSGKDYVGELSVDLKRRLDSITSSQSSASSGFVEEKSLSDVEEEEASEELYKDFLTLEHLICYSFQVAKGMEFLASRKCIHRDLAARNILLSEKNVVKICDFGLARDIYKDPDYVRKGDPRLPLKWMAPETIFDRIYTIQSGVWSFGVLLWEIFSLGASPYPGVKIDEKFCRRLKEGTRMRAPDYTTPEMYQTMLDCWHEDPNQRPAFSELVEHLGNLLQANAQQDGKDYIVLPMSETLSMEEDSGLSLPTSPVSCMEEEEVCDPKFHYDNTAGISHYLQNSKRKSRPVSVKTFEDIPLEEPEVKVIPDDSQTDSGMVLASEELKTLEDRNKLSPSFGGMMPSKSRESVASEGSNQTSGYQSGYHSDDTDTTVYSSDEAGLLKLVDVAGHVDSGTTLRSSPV

Take `CN(C)Cc1cncc(-c2cnc3[nH]nc(-c4nc5cc(N6CCN(C)CC6)ccc5[nH]4)c3c2)c1` [Cpd 88, dimethyl-(5-{3-[5-(4-methyl-piperazin-1-yl)-1H-benzoimidazol-2-yl]-1H-pyrazolo[3,4-b]pyridin-5-yl}-pyridin-3-ylmethyl)-amine]: the negative logarithm of the IC50 (pIC50) against Aurora-A is 6.55; against RET it was 6.98; in test [1], 6.07; against VEGF-R2, 6.92; on CDK1, 8.21; at HER2, 5.72. The pIC50 with A375 malignant melanoma is 6.05; in the test with HCT-116 colon carcinoma, 6.37.
As for `COCc1cccc2[nH]c(-c3n[nH]c4ncc(-c5ccc(N6CCOCC6)nc5)cc34)nc12` [Cpd 66, 3-(4-methoxymethyl-1H-benzoimidazol-2-yl)-5-(6-morpholin-4-yl-pyridin-3-yl)-1H-pyrazolo[3,4-b]pyridine], the pIC50 against Aurora-A is less than 6.00; against RET, less than 4.00; in test [1], 5.97; on VEGF-R2, 6.92; against CDK1 it was less than 4.00; against HER2 it was less than 4.00. The pIC50 in the test with A375 malignant melanoma is 8.36; in the test on HCT-116 colon carcinoma, 7.69.
In the case of `CCN(CC)Cc1cccc2[nH]c(-c3n[nH]c4ncc(Br)cc34)nc12` [Cpd 6, [2-(5-bromo-1H-pyrazolo[3,4-b]pyridin-3-yl)-1H-benzoimidazol-4-ylmethyl]-diethyl-amine], the pIC50 at Aurora-A is 6.01; against RET, less than 5.00; in test [1], 6.45; on VEGF-R2, 6.02; against CDK1, 7.11; against HER2, 7.05. The pIC50 in the test with A375 malignant melanoma and with HCT-116 colon carcinoma was 6.59 throughout.
As for `COCc1cccc2[nH]c(-c3n[nH]c4ncc(-c5cncc6ccccc56)cc34)nc12` [Cpd 4, 4-[3-(4-methoxymethyl-1H-benzoimidazol-2-yl)-1H-pyrazolo[3,4-b]pyridin-5-yl]-isoquinoline], the pIC50 on Aurora-A was 6.49; at RET, less than 5.00; in test [1] it was 7.83; against VEGF-R2, 6.34; against CDK1 it was 8.25; on HER2, 7.07. In addition, the pIC50 in the test on A375 malignant melanoma and in the test with HCT-116 colon carcinoma was 8.00 each time.
Consider `COCc1cccc2[nH]c(-c3n[nH]c4ncc(-c5ccc(OC)nc5)cc34)nc12` [Cpd 63, 3-(4-methoxymethyl-1H-benzoimidazol-2-yl)-5-(6-methoxy-pyridin-3-yl)-1H-pyrazolo[3,4-b]pyridine], for which the pIC50 was approximately 4.00 against Aurora-A; less than 4.00 at RET; 5.00 in test [1]; 6.50 against VEGF-R2; less than 5.00 against CDK1; less than 4.00 against HER2. In addition, the results for the pIC50 with A375 malignant melanoma and with HCT-116 colon carcinoma were 7.12 and 6.92, respectively.
Turning to `CN1CCN(C(=O)c2cccc3[nH]c(-c4n[nH]c5ncc(-c6cncc7ccccc67)cc45)nc23)CC1` [Cpd 23, [2-(5-isoquinolin-4-yl-1H-pyrazolo[3,4-b]pyridin-3-yl)-1H-benzoimidazole-4-yl]-(4-methyl-piperazin-1-yl)-methanone], the pIC50 was 4.96 at Aurora-A; less than 4.00 against RET; 5.18 in test [1]; 5.16 on VEGF-R2; 5.79 on CDK1; less than 5.00 against HER2. Also, the pIC50 with A375 malignant melanoma was 5.56; in the test on HCT-116 colon carcinoma, 5.50.
For `COCc1cccc2[nH]c(-c3n[nH]c4ncc(-c5cncc(CN6CCOCC6)c5C)cc34)nc12` [Cpd 60, 3-(4-methoxymethyl-1H-benzoimidazol-2-yl)-5-(4-methyl-5-morpholin-4-ylmethyl-pyridin-3-yl)-1H-pyrazolo[3,4-b]pyridine], the pIC50 on Aurora-A is approximately 6.00; on RET it was less than 5.00; in test [1], 5.80; on VEGF-R2, 5.52; at CDK1, 6.33; at HER2, approximately 4.00. Moreover, the pIC50 in the test on A375 malignant melanoma was 7.95; in the test with HCT-116 colon carcinoma, 7.40.
